Reference: PubChem BioAssay AID330 (DTP/NCI, 2004)
“And” between values parts separate entries of the source, which are not always exact repeats. Equal entries are not always repeated. Toxic doses and inconclusive results are not listed.

System: P388 leukemia ip, CD2F1 mice, survival T/C
Assay: NCI In Vivo Anticancer Drug Screen. Data for tumor model P388 Leukemia (intraperitoneal) in CD2F1 (CDF1) mice
Settings: endpoint: median survival time, higher = longer survival
Summary of the method: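 Mice carrying the transplanted tumor received test compound or vehicle. Survival was recorded in each group, and the value is the treated-group measurement divided by that of the vehicle-treated control group.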

[1] = dose: 50.0 mg/kg/injection, schedule: Q01DX009 (ip), vehicle: saline with Tween-80
[2] = dose: 100.0 mg/kg/injection, schedule: Q01DX009 (ip), vehicle: saline with Tween-80
[3] = dose: 6.25 mg/kg/injection, schedule: Q01DX009 (ip), vehicle: saline
[4] = dose: 12.5 mg/kg/injection, schedule: Q01DX009 (ip), vehicle: saline
[5] = dose: 25.0 mg/kg/injection, schedule: Q01DX009 (ip), vehicle: saline
[6] = dose: 50.0 mg/kg/injection, schedule: Q01DX009 (ip), vehicle: saline
[7] = dose: 100.0 mg/kg/injection, schedule: Q01DX009 (ip), vehicle: saline

With `CCc1nc2ccccc2c(=O)n1C(C)C` the T/C (dose: 100.0 mg/kg/injection, schedule: Q04DX002 (ip), vehicle: saline) was 100 % of control, the T/C (dose: 200.0 mg/kg/injection, schedule: Q04DX002 (ip), vehicle: saline) was 106 % of control and the T/C (dose: 400.0 mg/kg/injection, schedule: Q04DX002 (ip), vehicle: saline) was 104 % of control.
In the case of `O=C1c2ccccc2SCC12OC2c1ccc(Cl)cc1` (stereo not drawn), the T/C (dose: 100.0 mg/kg/injection, schedule: Q04DX002 (ip), vehicle: saline with Tween-80) is reported as 95 % of control and the T/C (dose: 200.0 mg/kg/injection, schedule: Q04DX002 (ip), vehicle: saline with Tween-80) is reported as 90 % of control.
For `COC(C)(C)c1ccc(C)c(O)c1`, the T/C (dose: 4.38 mg/kg/injection, schedule: Q01DX005 (ip), vehicle: Klucel (hydroxypropylcellulose) (HPC)) was 96 % of control, the T/C (dose: 8.75 mg/kg/injection, schedule: Q01DX005 (ip), vehicle: Klucel (hydroxypropylcellulose) (HPC)) was 95 % of control and the T/C (dose: 17.5 mg/kg/injection, schedule: Q01DX005 (ip), vehicle: Klucel (hydroxypropylcellulose) (HPC)) was 92 % of control. The T/C (dose: 35.0 mg/kg/injection, schedule: Q01DX005 (ip), vehicle: Klucel (hydroxypropylcellulose) (HPC)) was 91 % of control.
In the case of `N#Cc1nnc2cc(-c3ccccc3)nn2c1-c1cccs1`, the T/C (dose: 60.0 mg/kg/injection, schedule: Q01DX005 (ip), vehicle: Klucel (hydroxypropylcellulose) (HPC)) is reported as 86 % of control, the T/C (dose: 120.0 mg/kg/injection, schedule: Q01DX005 (ip), vehicle: Klucel (hydroxypropylcellulose) (HPC)) is reported as 90 % of control and the T/C (dose: 240.0 mg/kg/injection, schedule: Q01DX005 (ip), vehicle: Klucel (hydroxypropylcellulose) (HPC)) is reported as 87 % of control.
In the case of `CCOC(=O)c1cc2nc3ccccn3c(=O)c2cc1N`, the T/C (dose: 12.5 mg/kg/injection, schedule: Q01DX009 (ip), vehicle: saline with Tween-80) is reported as 105 % of control and 93 % of control, the T/C (dose: 25.0 mg/kg/injection, schedule: Q01DX009 (ip), vehicle: saline with Tween-80) is reported as 87 % of control and 90 % of control and the T/C [1] is reported as 92 % of control. The T/C [2] was 86 % of control and 96 % of control.
For `Nc1nc2c(ncn2C2OC(CO)C(O)C2O)c(=O)[nH]1.Nc1nc2c(ncn2C2OC(CO)C(O)C2O)c(=O)[nH]1.[NH2-].[NH2-].[Pt+2]` (stereo not drawn), the T/C [3] was 101 % of control, the T/C [4] was 100 % of control and 108 % of control and the T/C [5] was 100 % of control and 107 % of control. The T/C [6] was 100 % of control and 113 % of control and 107 % of control, the T/C (dose: 50.0 mg/kg/injection, schedule: Q01DX009 (ip), vehicle: water) was 175 % of control and the T/C (dose: 50.0 mg/kg/injection, schedule: Q04DX003 (ip), vehicle: saline) was 100 % of control. For the same compound, the T/C [7] was 112 % of control and 121 % of control and 116 % of control, the T/C (dose: 100.0 mg/kg/injection, schedule: Q01DX009 (ip), vehicle: water) was 174 % of control and the T/C (dose: 100.0 mg/kg/injection, schedule: Q04DX003 (ip), vehicle: saline) was 120 % of control. For the same compound, the T/C (dose: 200.0 mg/kg/injection, schedule: Q01DX009 (ip), vehicle: saline) was 163 % of control and 177 % of control, the T/C (dose: 200.0 mg/kg/injection, schedule: Q04DX003 (ip), vehicle: saline) was 110 % of control and the T/C (dose: 400.0 mg/kg/injection, schedule: Q01DX009 (ip), vehicle: saline) was 224 % of control and 227 % of control.
In the case of `O=Cc1cc(O)ccc1O`, the T/C [7] is reported as 103 % of control and 114 % of control.
`FC(F)(F)c1cc(-n2c(-c3ccccc3)nc(=S)c3c2CCCC3)cc(C(F)(F)F)c1` was tested, and the T/C [1] was 100 % of control, the T/C [2] was 95 % of control and the T/C (dose: 200.0 mg/kg/injection, schedule: Q01DX009 (ip), vehicle: saline with Tween-80) was 94 % of control.
In the case of `CCN(CC)CCNc1ccc([N+](=O)[O-])c2sc3ccccc3c(=O)c12`, the T/C [3] is reported as 104 % of control, the T/C [4] is reported as 112 % of control and the T/C (dose: 33.0 mg/kg/injection, schedule: Q01DX009 (ip), vehicle: saline) is reported as 180 % of control. The T/C [6] was 220 % of control, the T/C (dose: 75.0 mg/kg/injection, schedule: Q01DX009 (ip), vehicle: saline) was 115 % of control and the T/C [2] was 158 % of control.
In the case of `C#CCn1c2c(c3ccccc3c1=O)C(=O)c1ccccc1-2`, the T/C (dose: 50.0 mg/kg/injection, schedule: Q01DX005 (ip), vehicle: saline with Tween-80) is reported as 88 % of control, the T/C (dose: 100.0 mg/kg/injection, schedule: Q01DX005 (ip), vehicle: saline with Tween-80) is reported as 88 % of control and the T/C (dose: 200.0 mg/kg/injection, schedule: Q01DX005 (ip), vehicle: saline with Tween-80) is reported as 101 % of control.
With `COc1ccc2c(c1)OC1COc3cc(OC)c(OC)cc3C1C2=O` (stereo not drawn) the T/C [4] was 101 % of control, the T/C [5] was 94 % of control and the T/C [6] was 92 % of control. For the same compound, the T/C [7] was 93 % of control.
For `c1ccc(C2CC(c3ccccc3)c3ccccc3O2)cc1` (stereo not drawn), the T/C (dose: 100.0 mg/kg/injection, schedule: Q01DX001 (ip), vehicle: Klucel (hydroxypropylcellulose) (HPC)) was 87 % of control, the T/C (dose: 200.0 mg/kg/injection, schedule: Q01DX001 (ip), vehicle: Klucel (hydroxypropylcellulose) (HPC)) was 90 % of control and the T/C (dose: 400.0 mg/kg/injection, schedule: Q01DX001 (ip), vehicle: Klucel (hydroxypropylcellulose) (HPC)) was 96 % of control.
